The results in this text go back to patent US7166472B2, “Method for the identification of agents that inhibit or promote cataracts and uses thereof” (The General Hospital Corporation, priority 2000, dated 2007).

For experiment [1], the target named is bovine serum albumin (BSA) (Bos taurus, UniProt P02769). To be noted: 3-HK with Cu(II); TETA.
The target of experiment [2] is T1, αB-crystallin (Bos taurus, UniProt P02510).
T1 sequence (P02510 1-175): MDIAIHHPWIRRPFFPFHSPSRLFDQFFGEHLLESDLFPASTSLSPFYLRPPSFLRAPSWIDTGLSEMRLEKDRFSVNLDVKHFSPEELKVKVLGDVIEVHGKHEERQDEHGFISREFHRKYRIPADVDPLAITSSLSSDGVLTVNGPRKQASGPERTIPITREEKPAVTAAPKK
In words: αB-crystallin cross-linking in total calf lens protein (Western blot). Background: Immunoblotting shows a protein as a band on a membrane.

Experiment [3] can be described thus: Metal reduction assay, Cu(II) to Cu(I) (BC/BCA indicator). The class given is biochemical. To be noted: chelator 250 μM. As to the method:
Metal Reduction Assays—Assays were performed using a 96-well microtiter plate (Costar, Mass.). Test compounds from the kynurenine pathway (10 μM) or, as a positive control, ascorbic acid (ASC, 10 μM) were co-incubated with either Fe(III)-citrate (25 μM) and the Fe(II) indicator bathophenanthroline disulfonic acid (BP, 250 μM), or Cu(II)-glycine (25 μM) and the Cu(I) indicator bathocuproine disulfonic acid (BC) or bicinchoninic acid (BCA, 250 μM). Incubations were conducted in PBS, pH 7.4, at 37° C. in the dark for one hour. Absorbencies were then measured using a plate reader (SPECTRAmax Plus, Molecular Devices, CA) at the appropriate wavelengths: Fe(II)-BP complex at 535 nm (the known molar absorption coefficient, M535,=22140 M^−1 cm^−1), Cu(I)-BC complex at 483 nm, M483=12250 M^−1cm^−1), or Cu(I)-BCA complex at 562 nm, M562=7700 M^−1cm^−1). In control samples, absorbance from the metal ion and indicator in the absence of test compound and the absorbance of test compound in the presence of metal ions, but in the absence of indicator, were determined. The absorbencies from these controls were deducted from those obtained in the presence of the test compound, metal and indicator to yield the net absorbance (ΔA). Fe(II) or Cu(I) concentrations (μM) were calculated according to the formula: C(μM)=ΔA*10^6/Mλ.
The compounds comprising the kynurenine pathway (FIG. 1) were assayed for their ability to reduce […] and Cu(II) (FIG. 2A). […] Values represent the mean±SD for three independent measurements.

Experiment [4] deals with T2, recombinant human αB-crystallin (Homo sapiens, UniProt P02511).
T2 construct: gift of Dr. J. Liang, Brigham and Women's Hospital
T2 sequence (P02511 1-175): T1 sequence (P02510 1-175) with A40T, I61F, A132T, A152V
Nature of the experiment: Recombinant human αB-crystallin cross-linking (SDS-PAGE, silver stain). The experiment is classed as biochemical. To be noted: TETA 200 μM. The method, then: Various solutions containing 3-HK (10 μM) or other kynurenine pathway metabolites (10 μM), Cu(II)-glycine (10 μM), Fe(III)-citrate (10 μM), and triethylenetetramine (TETA, 200 μM), were added in combinations as indicated. […] After incubation, aliquots of the total lens protein solutions were mixed with sample buffer containing 4% SDS and 5% β-mercaptoethanol, heated to 95° C. for 5 minutes, and loaded at 1 μg/lane on a 10–20% Tricine gel (Novex, San Diego, Calif.). […] For the experiments with recombinant αB-crystallin, aliquots of the protein solutions were mixed with sample running buffer containing NuPAGE sample buffer (Novex, San Diego, Calif.) and 10% β-mercaptoethanol, heated to 95° C. for 5 minutes, spun briefly, then loaded on a NuPAGE 4–12% Bis-Tris polyacrylamide gel at 375 ng/lane and electrophoresed with denaturing 3-(N-morpholino)propanesulfonic acid (MOPS)-SDS running buffer according to the manufacturer's recommendations.
To exclude the effects of other lens proteins on the observed findings in FIG. 5, these interactions with purified recombinant human αB-crystallin were examined.

Experiment [5] is described as follows: Hydrogen peroxide assay (DCF fluorometric). To be noted: Cu(II) 1 μM; catalase 1000 U/ml or TETA 200 μM. The experiment is classed as biochemical. The method, then: Hydrogen Peroxide Assay—The fluorometric assay for hydrogen peroxide is based on the dichlorofluorescein diacetate (DCF) method (Molecular Probes, Eugene, Oreg.). The DCF solution (5 mM) in 100% ethanol was deacetylated in the presence of 0.01 M NaOH for 30 minutes and neutralized. Horseradish peroxidase (200 U/ml) was then added and the DCF concentration adjusted to 200 μM in PBS. The reaction solutions were carried out in PBS, pH 7.4, in a 96-well format plate (total volume=300 μL/well) and contained a test compound (KYN, 3-HK, 3-HAA, ANA, or ASC, each at 10 μM), deacetylated DCF (20 μM), and Cu(II)-glycine (1 μM) as indicated, incubated at 37° C. for 60 minutes. […] Abolition of the reading by co-incubation with catalase (1000 U/ml) was used for establishing H2O2 specificity. The fluorescent readings were recorded by a Packard FLURORCOUNT™ fluorescent plate reader with a 485 nm excitation filter and 530 nm emission filter. Concentrations were determined by comparison to a standard curve using reagent grade hydrogen peroxide in CHELEX™ chelating ion exchanae resin-treated PBS buffer, pH 7.4.
Reactions were conducted in the absence of added Cu(II), in the presence of added glycine-complexed Cu(II) (1 μM), in the presence of added glycine-complexed Cu(II) (1 μM) and catalase (1000 U/ml), or with added glycine-complexed Cu(II) (1 μM) and the copper chelator triethylenetetramine (TETA, 200 μM).

Experiment [6] can be described thus: Metal reduction capacity of tanned calf lens α-crystallin, Cu(II). The experiment is classed as biochemical. To be noted: α-crystallin preparation 100 μg/ml, Cu(II)-glycine 25 μM, one hour 37° C. As to the method: (§1) Studies of Tanned Calf Lens Crystalin in Assay of Crystallin Protein for Metal Reduction Capacity—α-Crystallin (10 mg/ml) from calf lens was modified by reaction with 3-HK (100 μM), 3-HAA (100 μM), or ASC (100 μM) in PBS, ph 7.4, for 12 hours at 4° C. in the dark. Control samples were incubated with ascorbic acid (100 μM) or without added reductant. The tanning incubation solutions also contained triethylenetetramine (TETA, 200 μM) to prevent cross-linking of the protein. After incubation, free reductant was removed from the tanned α-crystallin preparations by exhaustive dialysis at 4EC in the dark utilizing PBS, pH 7.4, containing CHELEX™ 100 chelating ion exchange resin (BioRad, Hercules, Calif.). The various modified α-crystallin preparations (100 μg/ml) were co-incubated with either Cu(II)-glycine glycine (25 μM) or Fe(III)-citrate (25 μM) for one hour at 37° C. and assayed for metal reduction capacity using the BC and BP spectrophotometric assay as detailed above. Incubated and dialyzed α-crystallin (100 μg/ml) and untreated α-crystallin (100 μg/ml) preparations were used for procedural control.
(§2) 3-HK: α-crystallin reduced nearly 100% of the available Cu(II) and approximately 20% of the available Fe(III). 3-HAA: α-crystallin reduced approximately 65% of the available Cu(II).

The nature of experiment [7]: Metal reduction capacity of tanned calf lens α-crystallin, Fe(III). The class given is biochemical. To be noted: α-crystallin preparation 100 μg/ml, Fe(III)-citrate 25 μM, one hour 37° C. The method, then: as §1, §2

Where a chain is given by its changes, count along the chain named.

bovine serum albumin (BSA), sequence (P02769 25-607): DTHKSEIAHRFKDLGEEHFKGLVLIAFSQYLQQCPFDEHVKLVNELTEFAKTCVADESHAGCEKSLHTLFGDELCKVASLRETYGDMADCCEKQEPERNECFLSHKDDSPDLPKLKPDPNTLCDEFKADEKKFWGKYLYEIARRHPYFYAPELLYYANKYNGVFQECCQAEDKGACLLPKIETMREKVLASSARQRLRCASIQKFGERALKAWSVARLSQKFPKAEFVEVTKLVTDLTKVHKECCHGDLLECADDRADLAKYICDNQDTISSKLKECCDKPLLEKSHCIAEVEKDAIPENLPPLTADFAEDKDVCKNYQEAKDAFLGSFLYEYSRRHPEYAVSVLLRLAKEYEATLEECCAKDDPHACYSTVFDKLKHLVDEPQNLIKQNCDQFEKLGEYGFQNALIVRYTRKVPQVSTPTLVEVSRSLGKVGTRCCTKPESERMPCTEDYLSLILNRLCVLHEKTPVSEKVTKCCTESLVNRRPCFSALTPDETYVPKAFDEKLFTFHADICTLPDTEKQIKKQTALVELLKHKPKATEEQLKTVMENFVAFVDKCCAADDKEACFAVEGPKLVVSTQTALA

Regarding `NCCNCCNCCN` [TETA, triethylenetetramine, reference compound], in experiment [1], the “effect on BSA protein depletion” value is recorded as “abolished”. Besides, the “effect on 3-HK induced αB-crystallin cross-linking” value in experiment [2] (TETA 200 μM co-incubation) is listed as “abolished”. Besides, the “effect on depletion of monomeric αB-crystallin” value in experiment [2] (co-incubated with 3-HK and Cu(II), TETA 200 μM) is given as “reversed the depletion”. Also, the “effect of chelator on metal reduction by 3-HK, 3-HAA and XA” value in experiment [3] is given as “abolished”. Further, in experiment [4], the “effect on 3-HAA Cu(II)-dependent oligomerization and loss of the monomer” value was “reversed”; the “effect on cross-linking by Cu(II) and 3-HK” value was “substantially attenuated”; the “effect on depletion of monomeric αB-crystallin by 3-HK and Cu(II)” value is on record as “completely reversed the depletion”. The “effect on hydrogen peroxide generation by 3-HK or 3-HAA” value in experiment [5] is reported as “abolished”.

B1: α-Crystallin: unmodified α-crystallin from calf lens, procedural control (protein, UniProt P02470 1-173; P02510 1-175, looked up)
Alpha-crystallin A chain: MDIAIQHPWFKRTLGPFYPSRLFDQFFGEGLFEYDLLPFLSSTISPYYRQSLFRTVLDSGISEVRSDRDKFVIFLDVKHFSPEDLTVKVQEDFVEIHGKHNERQDDHGYISREFHRRYRLPSNVDQSALSCSLSADGMLTFSGPKIPSGVDAGHSERAIPVSREEKPSSAPSS
Alpha-crystallin B chain: T1 sequence (P02510 1-175)
On to B1, for which the “reduction of available Cu(II)” value in experiment [6] is “approximately 35%”. In experiment [7], the “reduction of available Fe(III)” value was “negligible percentage”.

B2: 3-HK: α-crystallin: calf lens α-crystallin modified (tanned) by reaction with 3-HK, free metabolite removed by dialysis (protein, UniProt P02470 1-173; P02510 1-175, looked up)
Alpha-crystallin A chain: B1 Alpha-crystallin A chain
Alpha-crystallin B chain: T1 sequence (P02510 1-175)
modifications: modified with 3-hydroxykynurenine
notes: calf lens α-crystallin modified (tanned) by reaction with 3-HK, free metabolite removed by dialysis
For B2, in experiment [6], the “reduction of available Cu(II)” value is reported as about 100%. Also, in experiment [7], the “reduction of available Fe(III)” value is “approximately 20%”.
